In brackets after ≈: the same amount, converted by molar mass.
What was measured:
[1] = Comparative test of solubility in water (Britton-Robinson buffer); assay type: physicochemical; conditions: aqueous buffer, Britton-Robinson buffer (ion strength of 0.3) at 25° C.
Protocol: 3-(3-(4-(Pyridin-2-ylmethoxy)-benzyl)-isoxazol-5-yl)-pyridin-2-ylamine described in Reference Example 1, which is the parent compound, and the compound of Example 1 were compared for solubility in a Britton-Robinson buffer (ion strength of 0.3) at 25° C.

[2] = tested on: C. albicans CAF2-1 strain; assay: Anti-Candida activity (MIC measurement); assay type: cell-based; conditions: CAF21STRAIN, RPMI1640 medium, 42-48 hours at 35° C., visual inspection, read-out: Anti-Candida (minimum inhibitory concentration, MIC)
Protocol: (§1) For the C. albicans CAF2-1 strain, a fungal suspension from a standing culture for 48 hours at 30° C. in a Sabouraud dextrose liquid culture medium (SDB) was diluted with RPMI1640 medium to adjust a fungal suspension of 1.2×10^3 cells/mL. For the A. fumigatus Tsukuba strain, −80° C. stored strain was diluted with RPMI1640 medium to adjust to a fungal suspension of 4.5×10^3 cells/mL.
(§2) Using a U-bottomed 96 well plate, 8 samples/plate (A to H) of sample dilution solutions were prepared. On the 2nd to 12th rows were dispensed 10 μl of dimethyl sulfoxide solution. Weighted sample was dissolved in dimethyl sulfoxide to prepare a 2.5 mg/mL solution, 20 μl of this solution was added to the first row of the prepared plate, and 12 steps of two-folded step dilutions (10 μl of solution+10 μl of dimethyl sulfoxide solution) were performed on the plate. This sample dilution solution was dispensed in the amount of 1 μl to a flat-bottomed 96 well plate for MIC measurement to prepare a sample dilution plate.
(§3) The fungal suspension prepared in (1) was used in the amount of […] to inoculate the flat-bottomed 96 well plate containing 1 μL/well of the test compound dilution prepared in (2), and a standing culture was carried out aerobically for 42-48 hours at 35° C.

[3] = tested on: A. fumigatus Tsukuba strain; assay: Anti-Aspergillus activity (MIC measurement); assay type: cell-based; conditions: RPMI1640 medium, 42-48 hours at 35° C., visual inspection, read-out: Anti-Aspergillus activity (minimum inhibitory concentration, MIC)
Protocol: as §1, §2, §3

[4] = Conversion into parent compound (active form) in human liver S9 fraction; assay type: in vitro ADME; conditions: human liver S9 reaction solution, 0.2 mg/mL protein, 10 μmol/L compound, pH 7.4, 37° C., 0, 30, 60 minutes, LC-MS (FIG. 1)
Protocol: (§4) A suspension (pH of 7.4) containing human and monkey liver S9 fractions (with a protein concentration of 0.22 mg/mL), 0.5 mmol/L magnesium chloride, and 100 mmol/L tris-HCl was prepared over ice (various reaction solutions A). 30 μL of a 100 μmol/mL aqueous solution of the compound according to the present invention (the compound of Example 1) was added to the various reaction solutions A (for a final compound concentration of 10 μmol/L) to obtain various liver S9 reaction solutions (with a final protein concentration of 0.2 mg/mL), and these were stored on ice until (2) was carried out. A control sample was prepared (reaction buffer solution) by adding 30 μL of a […] aqueous solution of the compound according to the present invention (the compound of Example 1) to 0.27 mL of a buffer (pH of 7.4) containing 0.5 mmol/L magnesium chloride and 100 mmol/L tris-HCl. […]
(§5) (3) The Concentrations of the Compound According to the Present Invention (the Compound of Example 1) and the Parent Compound (the Compound of Reference Example 1) in the Reaction Solution were Quantified by LC-MS.
(§6) The concentrations of the compound according to the present invention (the compound of Example 1) and the parent compound (the compound of Reference Example 1) in the reaction solution were measured by the method described in 2. above. […]

[5] = Conversion into parent compound (active form) in monkey liver S9 fraction; assay type: in vitro ADME; conditions: monkey liver S9 reaction solution, 0.2 mg/mL protein, 10 μmol/L compound, pH 7.4, 37° C., 0, 30, 60 minutes, LC-MS (FIG. 2)
Protocol: as §4, §5, §6

Compound | solubility ([1]; pH 3) | solubility ([1]; pH 7) | solubility ([1]; pH 9) | MIC [2] | MIC [3] | Conversion into the parent compound (compound of Reference Example 1) [4] | Conversion into the parent compound (compound of Reference Example 1) [5]
Nc1ncccc1-c1cc(Cc2ccc(OCc3ccccn3)cc2)no1 [Reference Example 1, 3-(3-(4-(Pyridin-2-ylmethoxy)-benzyl)-isoxazol-5-yl)-pyridin-2-ylamine] | 400 µg/mL (≈ 1120 µM) | < 100 µg/mL | < 100 µg/mL | 0.2 µg/mL (≈ 0.558 µM) | 0.39 µg/mL (≈ 1.09 µM) | – | –
Nc1ncccc1-c1cc(Cc2ccc(OCc3cccc[n+]3COP(=O)([O-])O)cc2)no1 [Example 1, 2-((4-((5-(2-Amino-3-pyridinyl)-3-isoxazolyl)methyl)phenoxy)methyl)-1-((phosphonooxy)methyl)pyridinium mono-trifluoroacetate] | > 70000 µg/mL | > 70000 µg/mL | > 70000 µg/mL | – | – | converted into the parent compound | converted into the parent compound

Reference: patent US20100331282A1, “PYRIDINE DERIVATIVE CONTAINING ((PHOSPHONOOXY)METHYL)PYRIDINIUM RING, AND ANTIFUNGAL AGENT CONTAINING THESE DERIVATIVE” (priority 2009, published 2010)
